Results: patent publication US20250340557A1, “PYRIMIDINE DERIVATIVE” (ASKA PHARMACEUTICAL CO., LTD., priority 2022, published 2025)

What follows are compounds tested against T1, human mPGES-1 (Homo sapiens, UniProt O14684) (assay: Test for mPGES-1 inhibitory activity (microsomal enzyme, PGE2 EIA)). Conditions: microsomes from COS-1 cells transfected with human mPGES-1 cDNA; substrate PGH2 1 μM; 4° C., 4 minutes; PGE2 measured by EIA; read-out: h mPGES1 IC50.
T1 construct: made in house; host or cells: COS-1 cells (transient transfection; microsomal fraction used as enzyme)
T1 sequence (O14684 1-152): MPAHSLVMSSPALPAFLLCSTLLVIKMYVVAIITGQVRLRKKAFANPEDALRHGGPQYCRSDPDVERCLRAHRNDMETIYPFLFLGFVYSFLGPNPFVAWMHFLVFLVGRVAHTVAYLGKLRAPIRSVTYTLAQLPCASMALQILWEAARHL
Assay type: biochemical
Procedure, shortened: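 IC50 values were derived from EIA-quantified PGE2 after a 4 min, 4 °C reaction with PGH2 at 1 μM final, stopped with ferric chloride/citric acid. Beforehand, compound (2% DMSO final) sat 15 min at 4 °C with human mPGES-1 microsomes from transiently transfected COS-1 cells. Buffer was sodium phosphate pH 7.2 containing 2.5 mM reduced glutathione and 1 mM EDTA.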

`Cc1nc(-c2c(C(F)(F)F)ccc(CNC(=O)C3CCN(c4ccc5cccc(C)c5n4)CC3)c2F)[nH]c(=O)c1F` [Example 14, N-[2-fluoro-3-(5-fluoro-4-methyl-6-oxo-1,6-dihydropyrimidin-2-yl)-4-(trifluoromethyl)benzyl]-1-(8-methylquinolin-2-yl)piperidine-4-carboxamide] and `Cc1cc(=O)[nH]c(-c2c(C(F)(F)F)ccc(CNC(=O)C3CCN(c4ccc(Cl)c(F)c4)CC3)c2F)n1` [Example 95, 1-(4-chloro-3-fluorophenyl)-N-[2-fluoro-3-(4-methyl-6-oxo-1,6-dihydropyrimidin-2-yl)-4-(trifluoromethyl)benzyl]piperidine-4-carboxamide] cannot be ordered by IC50: under 1 nM for the first, under 1 nM for the second.

`CCc1cc(=O)[nH]c(-c2c(C(F)(F)F)ccc(CNC(=O)C3CCN(c4ccc(Cl)c(OC)c4)CC3)c2F)n1` [Example 98, 1-(4-chloro-3-methoxyphenyl)-N-[3-(4-ethyl-6-oxo-1,6-dihydropyrimidin-2-yl)-2-fluoro-4-(trifluoromethyl)benzyl]piperidine-4-carboxamide] and `Cc1cc(=O)[nH]c(-c2c(C(F)(F)F)ccc(CNC(=O)[C@H]3CC[C@H](OCc4ccc(F)c(F)c4)CC3)c2F)n1` [Example 107, trans-4-[(3,4-difluorobenzyl)oxy]-N-[2-fluoro-3-(4-methyl-6-oxo-1,6-dihydropyrimidin-2-yl)-4-(trifluoromethyl)benzyl]cyclohexane-1-carboxamide] are within 1.5-fold of each other in IC50: 19 nM for the first, 13 nM for the second.

First: O=C(NCc1ccc(C(F)(F)F)c(-c2nc(C(F)(F)F)cc(=O)[nH]2)c1F)C1CCN(c2cnc(C(F)(F)F)cn2)CC1 [Example 36, N-{2-fluoro-3-[6-oxo-4-(trifluoromethyl)-1,6-dihydropyrimidin-2-yl]-4-(trifluoromethyl)benzyl}-1-[5-(trifluoromethyl)pyrazin-2-yl]piperidine-4-carboxamide]
Second: O=c1cc(C(F)(F)F)nc(-c2c(C(F)(F)F)ccc(CNC(=O)[C@H]3C[C@H](OCc4ccccc4Cl)C3)c2F)[nH]1 [Example 136, trans-3-[(2-chlorobenzyl)oxy]-N-{2-fluoro-3-[6-oxo-4-(trifluoromethyl)-1,6-dihydropyrimidin-2-yl]-4-(trifluoromethyl)benzyl}cyclobutane-1-carboxamide]
The IC50 of the first is 7-fold higher: 14 nM for the first, 2 nM for the second. The second is the more potent here.

Same assay, conditions: microsomes of COS-1 cells transfected with human mPGES-1 cDNA; PGH2 1 μM; 4° C., 4 minutes; PGE2 by EIA; read-out: h mPGES1 IC50

Compared with `Cc1nc(-c2c(C(F)(F)F)ccc(CNC(=O)[C@H]3C[C@H](OCc4ccc(Cl)cc4F)C3)c2F)[nH]c(=O)c1F` [Example 219, trans-3-[(4-chloro-2-fluorobenzyl)oxy]-N-[2-fluoro-3-(5-fluoro-4-methyl-6-oxo-1,6-dihydropyrimidin-2-yl)-4-(trifluoromethyl)benzyl]cyclobutane-1-carboxamide], `Cc1nc(-c2c(C(F)(F)F)ccc(CNC(=O)[C@H]3C[C@H](OCc4ccc(Cl)cc4)C3)c2F)[nH]c(=O)c1F` [Example 214, trans-3-[(4-chlorobenzyl)oxy]-N-[2-fluoro-3-(5-fluoro-4-methyl-6-oxo-1,6-dihydropyrimidin-2-yl)-4-(trifluoromethyl)benzyl]cyclobutane-1-carboxamide] is 1.7-fold lower in IC50: 15 nM for the first, 8.6 nM for the second.

First: O=c1cc(C(F)F)nc(-c2c(C(F)(F)F)ccc(CNC(=O)[C@H]3C[C@H](OCc4cccc(F)c4)C3)c2F)[nH]1 [Example 171, trans-N-{3-[4-(difluoromethyl)-6-oxo-1,6-dihydropyrimidin-2-yl]-2-fluoro-4-(trifluoromethyl)benzyl}-3-[(3-fluorobenzyl)oxy]cyclobutane-1-carboxamide]
Second: CCc1cc(=O)[nH]c(-c2c(C(F)(F)F)ccc(CNC(=O)[C@H]3C[C@H](OCc4cccc(C(F)(F)F)c4)C3)c2F)n1 [Example 199, trans-N-[3-(4-ethyl-6-oxo-1,6-dihydropyrimidin-2-yl)-2-fluoro-4-(trifluoromethyl)benzyl]-3-{[3-(trifluoromethyl)benzyl]oxy}cyclobutane-1-carboxamide]
The IC50 of the first is lower: under 1 nM for the first, 1.1 nM for the second.

Compared with `CCc1nc(-c2c(C(F)(F)F)ccc(CNC(=O)[C@H]3C[C@H](OCc4ccc(F)cc4F)C3)c2F)[nH]c(=O)c1F` [Example 235, trans-3-[(2,4-difluorobenzyl)oxy]-N-[3-(4-ethyl-5-fluoro-6-oxo-1,6-dihydropyrimidin-2-yl)-2-fluoro-4-(trifluoromethyl)benzyl]cyclobutane-1-carboxamide], `CCc1cc(=O)[nH]c(-c2c(C(F)(F)F)ccc(CNC(=O)[C@H]3C[C@H](OCc4ccc(F)c(F)c4)C3)c2F)n1` [Example 203, trans-3-[(3,4-difluorobenzyl)oxy]-N-[3-(4-ethyl-6-oxo-1,6-dihydropyrimidin-2-yl)-2-fluoro-4-(trifluoromethyl)benzyl]cyclobutane-1-carboxamide] is lower in IC50: 1.1 nM for the first, under 1 nM for the second.

`O=c1cc(C(F)(F)F)nc(-c2c(C(F)(F)F)ccc(CNC(=O)[C@H]3C[C@H](OCc4cc(F)cc(Cl)c4)C3)c2F)[nH]1` [Example 159, trans-3-[(3-chloro-5-fluorobenzyl)oxy]-N-{2-fluoro-3-[6-oxo-4-(trifluoromethyl)-1,6-dihydropyrimidin-2-yl]-4-(trifluoromethyl)benzyl}cyclobutane-1-carboxamide] and `O=c1cc(C(F)(F)F)nc(-c2c(C(F)(F)F)ccc(CNC(=O)[C@H]3C[C@H](OCc4cc(F)cc(F)c4)C3)c2F)[nH]1` [Example 151, trans-3-[(3,5-difluorobenzyl)oxy]-N-{2-fluoro-3-[6-oxo-4-(trifluoromethyl)-1,6-dihydropyrimidin-2-yl]-4-(trifluoromethyl)benzyl}cyclobutane-1-carboxamide] cannot be ordered by IC50: under 12 nM for the first, under 1 nM for the second.

Going from `O=c1cc(C(F)(F)F)nc(-c2c(C(F)(F)F)ccc(CNC(=O)[C@H]3C[C@H](OCc4ccc(F)c(F)c4)C3)c2F)[nH]1` [Example 150, trans-3-[(3,4-difluorobenzyl)oxy]-N-{2-fluoro-3-[6-oxo-4-(trifluoromethyl)-1,6-dihydropyrimidin-2-yl]-4-(trifluoromethyl)benzyl}cyclobutane-1-carboxamide] to `Cc1cc(=O)[nH]c(-c2c(C(F)(F)F)ccc(CNC(=O)[C@H]3C[C@H](OCc4ccc(F)c(F)c4)C3)c2F)n1` [Example 186, trans-3-[(3,4-difluorobenzyl)oxy]-N-[2-fluoro-3-(4-methyl-6-oxo-1,6-dihydropyrimidin-2-yl)-4-(trifluoromethyl)benzyl]cyclobutane-1-carboxamide], the IC50 rises from under 1 nM to 3.2 nM.

Compared with `CCc1cc(=O)[nH]c(-c2c(C(F)(F)F)ccc(CNC(=O)[C@H]3C[C@H](OCc4cc(Cl)ccc4F)C3)c2F)n1` [Example 209, trans-3-[(5-chloro-2-fluorobenzyl)oxy]-N-[3-(4-ethyl-6-oxo-1,6-dihydropyrimidin-2-yl)-2-fluoro-4-(trifluoromethyl)benzyl]cyclobutane-1-carboxamide], `CCc1cc(=O)[nH]c(-c2c(C(F)(F)F)ccc(CNC(=O)[C@H]3C[C@H](OCc4cccc(Cl)c4)C3)c2F)n1` [Example 196, trans-3-[(3-chlorobenzyl)oxy]-N-[3-(4-ethyl-6-oxo-1,6-dihydropyrimidin-2-yl)-2-fluoro-4-(trifluoromethyl)benzyl]cyclobutane-1-carboxamide] is lower in IC50: 8.8 nM for the first, under 1 nM for the second. The second is the more potent here.

For `O=C(NCc1ccc(C(F)(F)F)c(-c2nc(C(F)(F)F)cc(=O)[nH]2)c1F)N1CCC(Oc2ccc(Cl)c(Cl)c2)CC1` [Example 258, 4-(3,4-dichlorophenoxy)-N-{2-fluoro-3-[6-oxo-4-(trifluoromethyl)-1,6-dihydropyrimidin-2-yl]-4-(trifluoromethyl)benzyl}piperidine-1-carboxamide], the IC50 was under 1 nM.
